Laboratory results from ChEMBL document CHEMBL1201862, “PubChem BioAssay data set” (2004).
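48-hour exposure; five concentrations; linearly interpolated endpoints. GI50 = concentration required for 50% inhibition of growth.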 Active and inactive are the calls of the source. No stated cut-off is given here; in the data, active = GI50 up to about 1.1 µM and inactive = higher.

How the values were obtained:
Assay in all cases: DTP human tumour cell line panel, 48 h
MDA-N = system: MDA-N
SK-MEL-28 = system: SK-MEL-28
NCI-H460 = system: NCI-H460
UACC-62 = system: UACC-62
MCF7 = system: MCF7
SK-MEL-5 = system: SK-MEL-5
PC-3 = system: PC-3
SNB-19 = system: SNB-19
CCRF-CEM = system: CCRF-CEM
Malme-3M = system: Malme-3M
Hs-578T = system: Hs-578T
OVCAR-8 = system: OVCAR-8
NCI-H522 = system: NCI-H522
SK-OV-3 = system: SK-OV-3
U-251 = system: U-251
786-0 = system: 786-0
SN12C = system: SN12C
HT-29 = system: HT-29
HL-60 = system: HL-60
OVCAR-4 = system: OVCAR-4

Measured: GI50

Cn1c(=O)c2c(O)cc(N)nc2n(C)c1=O
inactive: MDA-N > 100 µM | SK-MEL-28 > 100 µM | NCI-H460 > 100 µM | UACC-62 > 100 µM | MCF7 > 100 µM | SK-MEL-5 > 100 µM | PC-3 > 100 µM | SNB-19 > 100 µM | CCRF-CEM > 100 µM | Malme-3M > 100 µM | Hs-578T > 100 µM | OVCAR-8 63.4 µM | NCI-H522 > 100 µM | SK-OV-3 > 100 µM | U-251 > 100 µM | 786-0 > 100 µM | SN12C > 100 µM | HT-29 > 100 µM | HL-60 > 100 µM | OVCAR-4 > 100 µM

CC12CCC(C(Nc3ccccn3)C1=O)C2(C)C (stereo not given)
inactive: MDA-N > 100 µM | SK-MEL-28 > 100 µM | NCI-H460 > 100 µM | UACC-62 > 100 µM | MCF7 > 100 µM | SK-MEL-5 > 100 µM | PC-3 > 100 µM | SNB-19 > 100 µM | CCRF-CEM > 100 µM | Malme-3M > 100 µM | Hs-578T > 100 µM | OVCAR-8 > 100 µM | NCI-H522 > 100 µM | SK-OV-3 > 100 µM | U-251 > 100 µM | 786-0 > 100 µM | SN12C > 100 µM | HT-29 > 100 µM | HL-60 > 100 µM | OVCAR-4 > 100 µM

CCOC(=O)c1c(NS(=O)(=O)c2ccc(Br)cc2)sc2c1CCCC2
inactive: MDA-N 13.8 µM | SK-MEL-28 15.8 µM | NCI-H460 6.4 µM | UACC-62 6.46 µM | MCF7 10.3 µM | SK-MEL-5 7.29 µM | PC-3 5.41 µM | SNB-19 7.46 µM | CCRF-CEM 5.51 µM | Malme-3M 12.9 µM | Hs-578T 4.43 µM | OVCAR-8 5.89 µM | NCI-H522 2.03 µM | SK-OV-3 18.5 µM | U-251 12.4 µM | 786-0 9.31 µM | SN12C 6.14 µM | HT-29 5.3 µM | HL-60 6.18 µM | OVCAR-4 30.1 µM

CC(=O)Oc1c(C)c2c(c3ncccc13)OC(C)C2 (stereo not given)
inactive: MDA-N 11 µM | SK-MEL-28 13.9 µM | NCI-H460 10.8 µM | UACC-62 12.2 µM | MCF7 13.3 µM | SK-MEL-5 14.5 µM | PC-3 26 µM | SNB-19 34 µM | CCRF-CEM 6.37 µM | Malme-3M 16.3 µM | Hs-578T 22.2 µM | OVCAR-8 14.5 µM | NCI-H522 4.29 µM | SK-OV-3 21 µM | U-251 15.5 µM | 786-0 12.8 µM | SN12C 16.2 µM | HT-29 18.8 µM | HL-60 7.4 µM | OVCAR-4 16.3 µM

C[N+](C)(C)c1ccc(C(N)C(=O)O)cc1 (stereo not given)
inactive: MDA-N > 100 µM | SK-MEL-28 > 100 µM | NCI-H460 > 100 µM | UACC-62 > 100 µM | MCF7 > 100 µM | SK-MEL-5 > 100 µM | PC-3 > 100 µM | SNB-19 > 100 µM | CCRF-CEM > 100 µM | Malme-3M > 100 µM | Hs-578T > 100 µM | OVCAR-8 > 100 µM | NCI-H522 > 100 µM | SK-OV-3 > 100 µM | U-251 > 100 µM | 786-0 > 100 µM | SN12C > 100 µM | HT-29 > 100 µM | HL-60 43.7 µM | OVCAR-4 > 100 µM

CCCCCCCCCCCCCCCCOc1ccc(/C=C/C2=[N+](CCCl)CCO2)cc1
inactive: MDA-N > 100 µM | SK-MEL-28 > 100 µM | NCI-H460 90.4 µM | UACC-62 > 100 µM | MCF7 > 100 µM | SK-MEL-5 > 100 µM | PC-3 > 100 µM | SNB-19 > 100 µM | CCRF-CEM > 100 µM | Malme-3M > 100 µM | Hs-578T > 100 µM | OVCAR-8 42 µM | NCI-H522 > 100 µM | SK-OV-3 > 100 µM | U-251 32.9 µM | 786-0 30.8 µM | SN12C > 100 µM | HT-29 > 100 µM | HL-60 12 µM | OVCAR-4 > 100 µM

Nc1nc(O)nc2c1ncn2C1OC(CO)C(O)C1O (stereo not given)
inactive: MDA-N 46.5 µM | SK-MEL-28 > 100 µM | NCI-H460 > 100 µM | UACC-62 > 100 µM | MCF7 29 µM | SK-MEL-5 > 100 µM | PC-3 22.6 µM | SNB-19 > 100 µM | CCRF-CEM 33 µM | Malme-3M > 100 µM | Hs-578T > 100 µM | OVCAR-8 23.8 µM | NCI-H522 > 100 µM | SK-OV-3 40.2 µM | U-251 > 100 µM | 786-0 97.5 µM | SN12C 33.1 µM | HT-29 > 100 µM | HL-60 22 µM | OVCAR-4 37 µM
